Source: ChEMBL document CHEMBL3046147, “Synthesis and Herbicidal Activity of 1-Arylalkyl-3-pyrrolin-2-one Derivatives” (J Pestic Sci, 2000)
Active and inactive are the calls of the source. The rule behind the calls is not given here.

Key:
[1] = test system: Echinochloa oryzicola; assay: Herbicide activity against Echinochloa oryzicola under greenhouse condition compound treated at 2 leaf-stage measured after 14 to 20 days; format: functional
[2] = test system: Oryza sativa; assay: Phytotoxicity against two-leaf stage Oryza sativa cv. Nihonbare (rice) planted 3 cm depth measured after […]; format: organism-based; details: in vivo
[3] = test system: Echinochloa oryzicola; assay: Pre-emergence herbicide activity against Echinochloa oryzicola under greenhouse condition measured after 14 to 20 days; format: functional
[4] = test system: Oryza sativa; assay: Phytotoxicity against two-leaf stage Oryza sativa cv. Nihonbare (rice) planted 1 cm depth measured after […]; format: organism-based; details: in vivo
[5] = test system: Sagittaria pygmaea; assay: Herbicide activity against Sagittaria pygmaea under greenhouse condition compound treated at 0.5 leaf-stage measured after 14 to 20 days; format: functional
[6] = test system: Schoenoplectiella juncoides; assay: Herbicide activity against Schoenoplectiella juncoides under greenhouse condition compound treated at emergence-stage measured after 14 to 20 days; format: functional
[7] = test system: Echinochloa oryzicola; assay: Herbicidal activity against Echinochloa oryzicola under greenhouse condition assessed as growth inhibition at 500 g /ha measured after 20 days; format: functional, organism-based
[8] = test system: Echinochloa oryzicola; assay: Herbicidal activity against Echinochloa oryzicola grown in water-drained pot under greenhouse condition assessed as growth inhibition at 500 g /ha measured after 33 days; format: functional, organism-based
[9] = test system: Echinochloa oryzicola; assay: Herbicidal activity against Echinochloa oryzicola grown in water-drained pot under greenhouse condition assessed as growth inhibition at 500 g /ha measured after 27 days; format: functional, organism-based
[10] = test system: Echinochloa oryzicola; assay: Herbicidal activity against Echinochloa oryzicola under greenhouse condition assessed as growth inhibition at 500 g /ha measured after 42 days; format: functional, organism-based
[11] = test system: Echinochloa oryzicola; assay: Herbicidal activity against Echinochloa oryzicola under greenhouse condition assessed as growth inhibition at 125 g /ha measured after 27 days; format: functional, organism-based
[12] = test system: Echinochloa oryzicola; assay: Herbicidal activity against Echinochloa oryzicola under greenhouse condition assessed as growth inhibition at 500 g /ha measured after 27 days; format: functional, organism-based
[13] = test system: Echinochloa oryzicola; assay: Herbicidal activity against Echinochloa oryzicola grown in water-drained pot under greenhouse condition assessed as growth inhibition at 500 g /ha measured after 42 days; format: functional, organism-based
[14] = test system: Echinochloa oryzicola; assay: Herbicidal activity against Echinochloa oryzicola under greenhouse condition assessed as growth inhibition at 125 g /ha measured after 6 days; format: functional, organism-based
[15] = test system: Echinochloa oryzicola; assay: Herbicidal activity against Echinochloa oryzicola grown in water-drained pot under greenhouse condition assessed as time duration of residual effect at 125 g /ha; format: functional
[16] = test system: Echinochloa oryzicola; assay: Herbicidal activity against Echinochloa oryzicola under greenhouse condition assessed as growth inhibition at 500 g /ha measured after 13 days; format: functional, organism-based
[17] = test system: Echinochloa oryzicola; assay: Herbicidal activity against Echinochloa oryzicola grown in water-drained pot under greenhouse condition assessed as growth inhibition at 125 g /ha measured after 6 days; format: functional, organism-based
[18] = test system: Echinochloa oryzicola; assay: Herbicidal activity against Echinochloa oryzicola grown in water-drained pot under greenhouse condition assessed as growth inhibition at 125 g /ha measured after 13 days; format: functional, organism-based
[19] = test system: Echinochloa oryzicola; assay: Herbicidal activity against Echinochloa oryzicola grown in water-drained pot under greenhouse condition assessed as growth inhibition at 125 g /ha measured after 42 days; format: functional, organism-based
[20] = test system: Echinochloa oryzicola; assay: Herbicidal activity against Echinochloa oryzicola grown in water-drained pot under greenhouse condition assessed as growth inhibition at 500 g /ha measured after 6 days; format: functional, organism-based
[21] = test system: Echinochloa oryzicola; assay: Herbicidal activity against Echinochloa oryzicola under greenhouse condition assessed as time duration of residual effect at 125 g /ha; format: functional
[22] = test system: Echinochloa oryzicola; assay: Herbicidal activity against Echinochloa oryzicola under greenhouse condition assessed as growth inhibition at 125 g /ha measured after 13 days; format: functional, organism-based
[23] = test system: Echinochloa oryzicola; assay: Herbicidal activity against Echinochloa oryzicola grown in water-drained pot under greenhouse condition assessed as growth inhibition at 125 g /ha measured after 20 days; format: functional, organism-based
[24] = test system: Echinochloa oryzicola; assay: Herbicidal activity against Echinochloa oryzicola under greenhouse condition assessed as growth inhibition at 500 g /ha measured after 6 days; format: functional, organism-based
[25] = test system: Echinochloa oryzicola; assay: Herbicidal activity against Echinochloa oryzicola grown in water-drained pot under greenhouse condition assessed as growth inhibition at 500 g /ha measured after 13 days; format: functional, organism-based
[26] = test system: Echinochloa oryzicola; assay: Herbicidal activity against Echinochloa oryzicola grown in water-drained pot under greenhouse condition assessed as growth inhibition at 125 g /ha measured after 27 days; format: functional, organism-based
[27] = test system: Echinochloa oryzicola; assay: Herbicidal activity against Echinochloa oryzicola grown in water-drained pot under greenhouse condition assessed as growth inhibition at 500 g /ha measured after 20 days; format: functional, organism-based
[28] = test system: Echinochloa oryzicola; assay: Herbicidal activity against Echinochloa oryzicola under greenhouse condition assessed as growth inhibition at 125 g /ha measured after 33 days; format: functional, organism-based
[29] = test system: Echinochloa oryzicola; assay: Herbicidal activity against Echinochloa oryzicola under greenhouse condition assessed as growth inhibition at 125 g /ha measured after 20 days; format: functional, organism-based
[30] = test system: Echinochloa oryzicola; assay: Herbicidal activity against Echinochloa oryzicola under greenhouse condition assessed as time duration of residual effect at 500 g /ha; format: functional
[31] = test system: Echinochloa oryzicola; assay: Herbicidal activity against Echinochloa oryzicola grown in water-drained pot under greenhouse condition assessed as time duration of residual effect at 500 g /ha; format: functional
[32] = test system: Echinochloa oryzicola; assay: Herbicidal activity against Echinochloa oryzicola under greenhouse condition assessed as growth inhibition at 125 g /ha measured after 42 days; format: functional, organism-based
[33] = test system: Echinochloa oryzicola; assay: Herbicidal activity against Echinochloa oryzicola grown in water-drained pot under greenhouse condition assessed as growth inhibition at 125 g /ha measured after 33 days; format: functional, organism-based
[34] = test system: Echinochloa oryzicola; assay: Herbicidal activity against Echinochloa oryzicola under greenhouse condition assessed as growth inhibition at 500 g /ha measured after 33 days; format: functional, organism-based

CC1=C(c2ccccc2)C(=O)N(C(C)(C)c2sc3ccccc3[n+]2[O-])C1
MED [1]: <5 g/acre
MTD [2]: 80 g/acre
MED [3]: <10 g/acre
MTD [4]: 80 g/acre
MED [5]: 160 g/acre
MED [6]: 160 g/acre

CC1=C(c2ccccc2)C(=O)N(C(C)(C)c2ccsc2)C1
MED [1]: <10 g/acre
MTD [2]: 40 g/acre
MED [3]: 5 g/acre
MTD [4]: 20 g/acre
MED [5]: 20 g/acre
MED [6]: 5 g/acre

CC1=C(c2ccccc2)C(=O)N(C(C)(C)c2nc3cc(C#N)ccc3s2)C1
MED [1]: <5 g/acre
MTD [2]: 10 g/acre
MED [3]: 5 g/acre
MTD [4]: 40 g/acre
MED [5]: 40 g/acre
MED [6]: 20 g/acre

CC1=C(c2ccccc2)C(=O)N(C(C)(C)c2nc3cccnc3s2)C1
MED [1]: 2.5 g/acre
MTD [2]: 0.313 g/acre
MED [3]: 0.313 g/acre
MTD [4]: > 0.313 g/acre
MED [5]: 5 g/acre
MED [6]: 2.5 g/acre

CC(=O)OC1=C(c2ccccc2)C(=O)N(C(C)(C)c2nc3ccccc3s2)C1
MED [1]: <5 g/acre
MTD [2]: < 20 g/acre
MED [3]: 80 g/acre
MTD [4]: < 20 g/acre
MED [5]: 80 g/acre
MED [6]: 80 g/acre

CCC1=C(c2ccccc2)C(=O)N(C(C)(C)c2nc3ccccc3s2)C1
MED [1]: 5 g/acre
MTD [2]: 40 g/acre
MED [3]: 0.313 g/acre
MTD [4]: 20 g/acre
MED [5]: 80 g/acre
MED [6]: 10 g/acre

CC1=C(c2ccccc2)C(=O)N(C(C)(C)c2cc3ccccc3o2)C1
MED [1]: 2.5 g/acre
MTD [2]: 20 g/acre
MED [3]: 0.313 g/acre
MTD [4]: 10 g/acre
MED [5]: 80 g/acre
MED [6]: 80 g/acre

CC1=C(/C=C/c2ccccc2)C(=O)N(C(C)(C)c2nc3ccccc3s2)C1
MED [1]: <5 g/acre
MTD [2]: 80 g/acre
MED [3]: 160 g/acre
MTD [4]: 80 g/acre
MED [5]: 80 g/acre
MED [6]: 80 g/acre

CC1=C(c2ccccc2)C(=O)N(C(C)(C)c2nc3cc(C(=O)O)ccc3s2)C1
MED [1]: <5 g/acre
MTD [2]: 20 g/acre
MED [3]: 80 g/acre
MTD [4]: 10 g/acre
MED [5]: 80 g/acre
MED [6]: 80 g/acre

CC1=C(c2ccccc2)C(=O)N(C(C)(C)c2nc3cc(C(F)(F)F)ccc3s2)C1
MED [1]: <5 g/acre
MTD [2]: 20 g/acre
MED [3]: 80 g/acre
MTD [4]: 20 g/acre
MED [5]: 160 g/acre
MED [6]: 80 g/acre

CC1=C(c2ccccc2)C(=O)N(C(C)(C)c2cc3ccccc3s2)C1
MED [1]: 5 g/acre
MTD [2]: 20 g/acre
MED [3]: 0.313 g/acre
MTD [4]: 10 g/acre
MED [5]: 160 g/acre
MED [6]: 80 g/acre

CCCOCCN(C(=O)CCl)c1c(CC)cccc1CC [PRETILACHLOR]
growth inhibition (GI) [7]: Active
growth inhibition (GI) [8]: Active
growth inhibition (GI) [9]: Active
growth inhibition (GI) [10]: inactive
growth inhibition (GI) [11]: inactive
growth inhibition (GI) [12]: Active
growth inhibition (GI) [13]: inactive
growth inhibition (GI) [14]: Active
Time [15]: 6 days
growth inhibition (GI) [16]: Active
growth inhibition (GI) [17]: Active
growth inhibition (GI) [18]: Active
growth inhibition (GI) [19]: inactive
growth inhibition (GI) [20]: Active
Time [21]: 13 days
growth inhibition (GI) [22]: Active
growth inhibition (GI) [23]: inactive
growth inhibition (GI) [24]: Active
growth inhibition (GI) [25]: Active
growth inhibition (GI) [26]: inactive
growth inhibition (GI) [27]: Active
growth inhibition (GI) [28]: inactive
growth inhibition (GI) [29]: Active
Time [30]: 27 days
Time [31]: 16 days
growth inhibition (GI) [32]: inactive
growth inhibition (GI) [33]: inactive
growth inhibition (GI) [34]: Active
